# Reference: US11197878B2, “Anti-inflammatory composition including novel quercetin-based compound” (AMOREPACIFIC CORPORATION, priority 2017, dated 2021)
# Tested on: skin
# Assay: Test for skin accumulated stimulus, HRIPT (Human repeated insult patch tests)
# Assay type: in vivo
# Set-up: key to skin reactivity (ICDRG criteria): −: negative (no response); ±: doubtful or slight erythema, etc.; +: weak reaction (which is accompanied with no phlyctenule), erythema, papule; ++: severe reaction (which is accompanied with phlyctenule), erythema, papule, phlyctenule; +++: strong reaction, bullae reaction
# Settings: for Number of examinees who exhibited ±, +, or ++ reactivity, 5th: 5th patch; for Number of examinees who exhibited ±, +, or ++ reactivity, 6th: 6th patch; for Number of examinees who exhibited ±, +, or ++ reactivity, 7th: 7th patch; for Number of examinees who exhibited ±, +, or ++ reactivity, 8th: 8th patch; for average reactivity: 9 patches over 3 weeks, 15 examinees, less than 3 is considered a stable composition; for Number of examinees who exhibited ±, +, or ++ reactivity, 9th: 9th patch; for Number of examinees who exhibited ±, +, or ++ reactivity, 1st: 1st patch; for Number of examinees who exhibited ±, +, or ++ reactivity, 2nd: 2nd patch; for Number of examinees who exhibited ±, +, or ++ reactivity, 3rd: 3rd patch; for Number of examinees who exhibited ±, +, or ++ reactivity, 4th: 4th patch
# Experimental: HRIPT (Human repeated insult patch tests) was conducted in order to identify skin accumulated stimulus of quercetin3-O-[3-O″-(E)-p-coumaroyl][β-D-glucopyranosyl-(1→3)-O-α-L-rhamnopyranosyl-(1→6)-O-β-D-glucopyranoside] and quercetin3-O-[3-O″-(E)-p-coumaroyl][α-L-rhamnopyranosyl-(1→6)-O-β-D-glucopyranoside] and to calculate the concentration range that can be used in skin. Specifically, 15 healthy adult examinees were randomly selected, and test compositions in which the compounds were respectively comprised in an amount of 0.5 wt. %, 1 wt. %, and 3 wt. % (the compositions for skin, comprising an emulsifying agent, a stabilizer, purified water, etc. in addition to the compounds) were dropped in the amount of 20 μl per chamber (IQ chamber, Epitest Ltd, Finland), and patched on the right site of the upper back of the examinees, and then, after 24 hours, the patch was replaced with a new patch. A total of 9 patches were conducted, three times a week for total 3 weeks, in such manner, the skin reactions before and after patch were examined every time, and the skin reactions until 48 hours after removing the final patch were observed, and the average reactivity was observed. The skin reaction was determined according to the criteria of International Contact Dermatitis Research Group (ICDRG). In the above table, “New Material 31” refers to quercetin3-O-[3-O″-(E)-p-coumaroyl][β-D-glucopyranosyl-(1→3)-O-α-L-rhamnopyranosyl-(1→6)-O-β-D-glucopyranoside], and “New Material 32” refers to quercetin3-O-[3-O″-(E)-p-coumaroyl][α-L-rhamnopyranosyl-(1→6)-O-β-D-glucopyranoside].
structure (smiles),measurement,setting,value
"C[C@@H]1O[C@@H](OC[C@H]2O[C@@H](Oc3c(-c4ccc(O)c(O)c4)oc4cc(O)cc(O)c4c3=O)[C@H](O)[C@@H](OC(=O)/C=C/c3ccc(O)cc3)[C@@H]2O)[C@H](O)[C@H](O)[C@H]1O [New Material 32, quercetin3-O-[3-O″-(E)-p-coumaroyl][α-L-rhamnopyranosyl-(1→6)-O-β-D-glucopyranoside]]","Number of examinees who exhibited ±, +, or ++ reactivity, 5th","1 wt. %, line 1 of 3 (±)",0 number
same,"Number of examinees who exhibited ±, +, or ++ reactivity, 5th","1 wt. %, line 2 of 3 (+)",0 number
same,"Number of examinees who exhibited ±, +, or ++ reactivity, 5th","1 wt. %, line 3 of 3 (++)",0 number
same,"Number of examinees who exhibited ±, +, or ++ reactivity, 6th","1 wt. %, line 1 of 3 (±)",0 number
same,"Number of examinees who exhibited ±, +, or ++ reactivity, 6th","1 wt. %, line 2 of 3 (+)",0 number
same,"Number of examinees who exhibited ±, +, or ++ reactivity, 6th","1 wt. %, line 3 of 3 (++)",0 number
same,"Number of examinees who exhibited ±, +, or ++ reactivity, 7th","1 wt. %, line 1 of 3 (±)",0 number
same,"Number of examinees who exhibited ±, +, or ++ reactivity, 7th","1 wt. %, line 2 of 3 (+)",0 number
same,"Number of examinees who exhibited ±, +, or ++ reactivity, 7th","1 wt. %, line 3 of 3 (++)",0 number
same,"Number of examinees who exhibited ±, +, or ++ reactivity, 8th","1 wt. %, line 1 of 3 (±)",0 number
same,"Number of examinees who exhibited ±, +, or ++ reactivity, 8th","1 wt. %, line 2 of 3 (+)",0 number
same,"Number of examinees who exhibited ±, +, or ++ reactivity, 8th","1 wt. %, line 3 of 3 (++)",0 number
same,average reactivity,1 wt. %,0
same,"Number of examinees who exhibited ±, +, or ++ reactivity, 9th","1 wt. %, line 1 of 3 (±)",0 number
same,"Number of examinees who exhibited ±, +, or ++ reactivity, 9th","1 wt. %, line 2 of 3 (+)",0 number
same,"Number of examinees who exhibited ±, +, or ++ reactivity, 9th","1 wt. %, line 3 of 3 (++)",0 number
same,"Number of examinees who exhibited ±, +, or ++ reactivity, 1st","3 wt. %, line 1 of 3 (±)",0 number
same,"Number of examinees who exhibited ±, +, or ++ reactivity, 1st","3 wt. %, line 2 of 3 (+)",0 number
same,"Number of examinees who exhibited ±, +, or ++ reactivity, 1st","3 wt. %, line 3 of 3 (++)",0 number
same,"Number of examinees who exhibited ±, +, or ++ reactivity, 2nd","3 wt. %, line 1 of 3 (±)",0 number
same,"Number of examinees who exhibited ±, +, or ++ reactivity, 2nd","3 wt. %, line 2 of 3 (+)",0 number
same,"Number of examinees who exhibited ±, +, or ++ reactivity, 2nd","3 wt. %, line 3 of 3 (++)",0 number
same,"Number of examinees who exhibited ±, +, or ++ reactivity, 3rd","3 wt. %, line 1 of 3 (±)",0 number
same,"Number of examinees who exhibited ±, +, or ++ reactivity, 3rd","3 wt. %, line 2 of 3 (+)",0 number
same,"Number of examinees who exhibited ±, +, or ++ reactivity, 3rd","3 wt. %, line 3 of 3 (++)",0 number
same,"Number of examinees who exhibited ±, +, or ++ reactivity, 4th","3 wt. %, line 1 of 3 (±)",0 number
same,"Number of examinees who exhibited ±, +, or ++ reactivity, 4th","3 wt. %, line 2 of 3 (+)",0 number
same,"Number of examinees who exhibited ±, +, or ++ reactivity, 4th","3 wt. %, line 3 of 3 (++)",0 number
same,"Number of examinees who exhibited ±, +, or ++ reactivity, 5th","3 wt. %, line 1 of 3 (±)",0 number
same,"Number of examinees who exhibited ±, +, or ++ reactivity, 5th","3 wt. %, line 2 of 3 (+)",0 number
same,"Number of examinees who exhibited ±, +, or ++ reactivity, 5th","3 wt. %, line 3 of 3 (++)",0 number
same,"Number of examinees who exhibited ±, +, or ++ reactivity, 6th","3 wt. %, line 1 of 3 (±)",0 number
same,"Number of examinees who exhibited ±, +, or ++ reactivity, 6th","3 wt. %, line 2 of 3 (+)",0 number
same,"Number of examinees who exhibited ±, +, or ++ reactivity, 6th","3 wt. %, line 3 of 3 (++)",0 number
same,"Number of examinees who exhibited ±, +, or ++ reactivity, 7th","3 wt. %, line 1 of 3 (±)",0 number
same,"Number of examinees who exhibited ±, +, or ++ reactivity, 7th","3 wt. %, line 2 of 3 (+)",0 number
same,"Number of examinees who exhibited ±, +, or ++ reactivity, 7th","3 wt. %, line 3 of 3 (++)",0 number
same,"Number of examinees who exhibited ±, +, or ++ reactivity, 8th","3 wt. %, line 1 of 3 (±)",0 number
same,"Number of examinees who exhibited ±, +, or ++ reactivity, 8th","3 wt. %, line 2 of 3 (+)",0 number
same,"Number of examinees who exhibited ±, +, or ++ reactivity, 8th","3 wt. %, line 3 of 3 (++)",0 number
same,average reactivity,3 wt. %,0
same,"Number of examinees who exhibited ±, +, or ++ reactivity, 9th","3 wt. %, line 1 of 3 (±)",0 number
same,"Number of examinees who exhibited ±, +, or ++ reactivity, 9th","3 wt. %, line 2 of 3 (+)",0 number
same,"Number of examinees who exhibited ±, +, or ++ reactivity, 9th","3 wt. %, line 3 of 3 (++)",0 number
same,skin reactivity (ICDRG criteria),"within the range of contents 0.5 wt. %, 1 wt. %, 3 wt. %",−
